Measured values: patent publication US20130209543A1, “ENHANCED TREATMENT REGIMENS USING MTOR INHIBITORS” (Intellikine LLC, priority 2011, published 2013)
Like-named read-outs stand apart in the source and are kept apart here.

Legend:
Assay type in all cases: biochemical
[1] = molecular target: T1, mTOR (Homo sapiens, UniProt P42345); assay: mTOR kinase inhibition assay
T1 construct: purchased Invitrogen

[2] = molecular target: PI3K α (Homo sapiens, UniProt P42336); assay: PI3K α kinase assay
[3] = molecular target: PI3K γ (Homo sapiens, UniProt P48736); assay: PI3K γ kinase assay
[4] = molecular target: PI3K δ (Homo sapiens, UniProt O00329); assay: PI3K δ kinase assay
[5] = molecular target: PI3K β (Homo sapiens, UniProt P42338); assay: PI3K β kinase assay
Sequence of PI3K β (P42338 whole entry, species assumed): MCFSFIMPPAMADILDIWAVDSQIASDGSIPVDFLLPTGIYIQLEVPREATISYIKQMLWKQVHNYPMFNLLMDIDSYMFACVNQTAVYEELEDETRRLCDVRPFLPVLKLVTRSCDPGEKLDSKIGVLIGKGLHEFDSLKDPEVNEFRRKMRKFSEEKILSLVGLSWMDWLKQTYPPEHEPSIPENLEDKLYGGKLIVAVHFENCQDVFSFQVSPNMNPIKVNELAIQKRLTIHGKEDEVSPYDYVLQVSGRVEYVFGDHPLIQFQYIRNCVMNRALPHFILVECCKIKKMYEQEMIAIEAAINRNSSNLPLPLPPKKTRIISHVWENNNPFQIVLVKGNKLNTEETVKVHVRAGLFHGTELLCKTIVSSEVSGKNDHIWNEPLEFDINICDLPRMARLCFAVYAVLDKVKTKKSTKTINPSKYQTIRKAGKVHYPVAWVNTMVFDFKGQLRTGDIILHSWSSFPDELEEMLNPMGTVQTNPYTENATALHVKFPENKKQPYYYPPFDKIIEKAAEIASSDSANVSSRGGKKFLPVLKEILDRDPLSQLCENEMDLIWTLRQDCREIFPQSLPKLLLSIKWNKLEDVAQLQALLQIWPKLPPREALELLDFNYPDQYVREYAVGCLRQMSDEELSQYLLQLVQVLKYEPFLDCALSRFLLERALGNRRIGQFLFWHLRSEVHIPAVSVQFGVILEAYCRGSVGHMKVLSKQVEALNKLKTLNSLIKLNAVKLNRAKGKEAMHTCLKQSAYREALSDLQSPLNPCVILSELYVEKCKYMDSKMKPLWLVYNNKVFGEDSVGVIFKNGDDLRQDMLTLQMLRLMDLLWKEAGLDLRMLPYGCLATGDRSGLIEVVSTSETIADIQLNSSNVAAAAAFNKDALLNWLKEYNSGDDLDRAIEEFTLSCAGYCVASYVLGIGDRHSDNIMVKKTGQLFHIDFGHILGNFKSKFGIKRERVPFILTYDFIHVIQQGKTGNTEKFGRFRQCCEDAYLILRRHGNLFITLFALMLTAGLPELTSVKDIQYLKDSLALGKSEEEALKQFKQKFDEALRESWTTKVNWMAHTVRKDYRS
Sequence of PI3K β (P27986 whole entry partner, species assumed): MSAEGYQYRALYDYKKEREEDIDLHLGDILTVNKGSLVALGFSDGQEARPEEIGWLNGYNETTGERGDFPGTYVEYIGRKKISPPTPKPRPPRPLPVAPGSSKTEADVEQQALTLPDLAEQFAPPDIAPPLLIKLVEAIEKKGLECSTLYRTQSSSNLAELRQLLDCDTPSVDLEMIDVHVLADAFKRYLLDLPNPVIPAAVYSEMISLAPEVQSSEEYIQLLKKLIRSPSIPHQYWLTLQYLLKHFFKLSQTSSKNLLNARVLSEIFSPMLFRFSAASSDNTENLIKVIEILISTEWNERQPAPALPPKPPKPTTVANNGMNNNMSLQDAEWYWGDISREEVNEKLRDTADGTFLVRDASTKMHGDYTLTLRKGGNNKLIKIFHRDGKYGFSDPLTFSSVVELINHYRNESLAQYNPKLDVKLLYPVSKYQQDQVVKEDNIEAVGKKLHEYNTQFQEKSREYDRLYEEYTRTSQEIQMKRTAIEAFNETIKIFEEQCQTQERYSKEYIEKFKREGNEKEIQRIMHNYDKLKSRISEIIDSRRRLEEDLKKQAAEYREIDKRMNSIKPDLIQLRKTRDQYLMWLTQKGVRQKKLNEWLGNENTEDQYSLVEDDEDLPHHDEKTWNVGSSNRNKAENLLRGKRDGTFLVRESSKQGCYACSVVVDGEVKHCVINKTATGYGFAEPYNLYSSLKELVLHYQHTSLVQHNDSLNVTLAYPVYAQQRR

Sequence of PI3K α (P42336 whole entry, species assumed): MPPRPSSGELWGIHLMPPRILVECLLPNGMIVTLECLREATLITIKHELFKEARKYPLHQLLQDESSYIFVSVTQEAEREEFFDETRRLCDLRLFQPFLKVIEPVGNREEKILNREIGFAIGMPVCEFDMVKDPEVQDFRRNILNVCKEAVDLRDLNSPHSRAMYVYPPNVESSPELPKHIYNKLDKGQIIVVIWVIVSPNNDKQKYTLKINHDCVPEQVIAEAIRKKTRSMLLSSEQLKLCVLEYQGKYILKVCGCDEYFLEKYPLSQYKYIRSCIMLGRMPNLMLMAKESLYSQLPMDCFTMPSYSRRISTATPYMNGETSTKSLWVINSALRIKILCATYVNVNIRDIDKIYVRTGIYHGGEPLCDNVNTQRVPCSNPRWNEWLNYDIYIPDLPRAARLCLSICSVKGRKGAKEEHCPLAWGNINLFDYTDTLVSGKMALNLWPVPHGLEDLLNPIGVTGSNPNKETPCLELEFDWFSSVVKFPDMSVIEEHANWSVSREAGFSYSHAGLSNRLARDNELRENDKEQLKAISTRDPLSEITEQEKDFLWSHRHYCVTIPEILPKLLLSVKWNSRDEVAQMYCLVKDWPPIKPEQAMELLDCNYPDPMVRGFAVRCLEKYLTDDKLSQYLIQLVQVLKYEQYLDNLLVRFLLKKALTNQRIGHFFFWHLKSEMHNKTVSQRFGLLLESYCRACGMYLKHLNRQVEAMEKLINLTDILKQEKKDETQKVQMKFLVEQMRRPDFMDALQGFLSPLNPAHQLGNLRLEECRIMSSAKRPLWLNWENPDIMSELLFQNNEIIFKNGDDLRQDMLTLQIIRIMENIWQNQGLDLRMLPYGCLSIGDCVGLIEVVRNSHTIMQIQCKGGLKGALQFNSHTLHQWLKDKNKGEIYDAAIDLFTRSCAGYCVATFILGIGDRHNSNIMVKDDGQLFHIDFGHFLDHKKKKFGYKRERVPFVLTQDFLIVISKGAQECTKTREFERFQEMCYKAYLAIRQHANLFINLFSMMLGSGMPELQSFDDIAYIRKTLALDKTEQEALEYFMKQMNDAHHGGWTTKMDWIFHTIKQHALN
Sequence of PI3K α (P27986 whole entry partner, species assumed): as the sequence (P27986 whole entry partner, species assumed) above
Sequence of PI3K γ (P48736 whole entry, species assumed): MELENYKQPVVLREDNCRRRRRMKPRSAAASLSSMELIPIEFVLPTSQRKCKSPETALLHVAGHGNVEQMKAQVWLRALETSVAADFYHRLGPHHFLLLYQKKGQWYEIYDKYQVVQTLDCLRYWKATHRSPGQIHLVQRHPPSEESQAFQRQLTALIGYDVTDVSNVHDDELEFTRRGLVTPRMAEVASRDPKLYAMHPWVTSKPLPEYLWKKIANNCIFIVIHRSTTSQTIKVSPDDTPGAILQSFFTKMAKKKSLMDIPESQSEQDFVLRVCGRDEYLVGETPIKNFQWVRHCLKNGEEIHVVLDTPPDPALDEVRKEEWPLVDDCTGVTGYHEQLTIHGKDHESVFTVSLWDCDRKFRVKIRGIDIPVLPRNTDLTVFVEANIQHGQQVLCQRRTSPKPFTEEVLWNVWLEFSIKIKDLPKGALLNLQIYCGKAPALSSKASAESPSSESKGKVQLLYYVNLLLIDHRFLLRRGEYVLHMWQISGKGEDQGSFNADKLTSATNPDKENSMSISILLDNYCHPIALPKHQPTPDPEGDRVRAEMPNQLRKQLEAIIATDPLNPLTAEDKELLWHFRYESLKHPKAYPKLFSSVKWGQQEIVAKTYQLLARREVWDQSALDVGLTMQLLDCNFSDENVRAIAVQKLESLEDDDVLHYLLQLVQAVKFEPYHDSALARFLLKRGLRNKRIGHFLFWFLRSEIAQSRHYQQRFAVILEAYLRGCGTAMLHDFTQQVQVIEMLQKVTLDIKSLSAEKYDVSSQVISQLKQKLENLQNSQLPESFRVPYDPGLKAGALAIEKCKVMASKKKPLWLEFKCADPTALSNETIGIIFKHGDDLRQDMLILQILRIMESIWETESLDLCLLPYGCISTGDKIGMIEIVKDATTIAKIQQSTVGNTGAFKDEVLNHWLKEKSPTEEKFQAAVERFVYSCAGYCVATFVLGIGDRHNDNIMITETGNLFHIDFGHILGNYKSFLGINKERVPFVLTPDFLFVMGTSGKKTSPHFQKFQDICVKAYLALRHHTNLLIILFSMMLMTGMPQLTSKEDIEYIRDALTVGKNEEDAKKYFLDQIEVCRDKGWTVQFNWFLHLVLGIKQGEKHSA
Sequence of PI3K δ (O00329 whole entry, species assumed): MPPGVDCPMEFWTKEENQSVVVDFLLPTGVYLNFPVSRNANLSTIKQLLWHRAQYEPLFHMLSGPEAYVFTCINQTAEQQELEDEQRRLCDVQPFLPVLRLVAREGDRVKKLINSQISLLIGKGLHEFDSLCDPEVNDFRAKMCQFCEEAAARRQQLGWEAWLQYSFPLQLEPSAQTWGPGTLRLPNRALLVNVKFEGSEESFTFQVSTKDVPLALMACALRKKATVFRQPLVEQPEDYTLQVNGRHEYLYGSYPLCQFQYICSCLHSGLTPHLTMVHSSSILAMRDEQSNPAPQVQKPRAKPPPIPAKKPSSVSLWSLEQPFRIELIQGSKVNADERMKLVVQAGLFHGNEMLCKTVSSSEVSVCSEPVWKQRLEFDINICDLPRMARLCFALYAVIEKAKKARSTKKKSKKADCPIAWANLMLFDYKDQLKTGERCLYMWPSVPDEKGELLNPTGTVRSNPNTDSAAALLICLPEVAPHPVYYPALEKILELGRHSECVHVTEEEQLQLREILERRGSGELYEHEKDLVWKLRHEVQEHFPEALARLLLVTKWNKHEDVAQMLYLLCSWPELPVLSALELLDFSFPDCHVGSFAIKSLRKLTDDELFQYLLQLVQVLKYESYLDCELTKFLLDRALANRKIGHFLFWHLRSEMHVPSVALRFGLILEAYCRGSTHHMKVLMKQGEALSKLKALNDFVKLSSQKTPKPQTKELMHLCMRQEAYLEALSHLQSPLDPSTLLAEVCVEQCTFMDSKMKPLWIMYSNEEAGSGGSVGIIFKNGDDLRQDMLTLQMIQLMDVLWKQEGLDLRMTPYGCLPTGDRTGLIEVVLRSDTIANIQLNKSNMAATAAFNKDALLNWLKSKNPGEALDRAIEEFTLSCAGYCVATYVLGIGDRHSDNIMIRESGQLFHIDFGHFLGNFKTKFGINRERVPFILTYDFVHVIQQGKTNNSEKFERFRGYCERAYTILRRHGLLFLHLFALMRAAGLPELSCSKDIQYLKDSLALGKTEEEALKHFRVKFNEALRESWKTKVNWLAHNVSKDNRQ
Sequence of PI3K δ (P27986 whole entry partner, species assumed): as the sequence (P27986 whole entry partner, species assumed) above

| SMILES | IC50 ([1]; Table 2, read-out: mTORC IC50) [nM] | IC50 ([2]; Table 2) [nM] | IC50 ([3]; Table 2) [nM] | further results |
| --- | --- | --- | --- | --- |
| CC(C)n1nc(-c2cc3cc(F)ccc3[nH]2)c2c(NC(=O)N(C)C)ncnc21 [Compound 2] | > 500 |  |  |  |
| CC(=O)Nc1nc2ccc(-c3nn(C(C)C)c4ncnc(N)c34)cc2o1 [Compound 3] |  |  |  | IC50 ([2]; Table 1): > 10000 nM |
| CC(C)n1nc(-c2cc3cc(F)ccc3[nH]2)c2c(N)ncnc21 [Compound 3] | 100 to 500 | > 500 |  |  |
| CC(C)n1nc(-c2cc3cc(C#N)ccc3[nH]2)c2c(N)ncnc21 [Compound 4] | > 500 | > 500 |  |  |
| COc1ccc2[nH]c(-c3nn(C(C)C)c4ncnc(N)c34)cc2c1 [Compound 5] | > 500 | > 500 |  |  |
| CC(C)n1nc(-c2cc3ccccc3n2C)c2c(N)ncnc21 [Compound 6] | > 500 | > 500 |  |  |
| CC(C)n1nc(-c2cc3ccccc3[nH]2)c2c(N)ncnc21 [Compound 7] | 50 to 100 | > 500 |  |  |
| COc1ccc2cc(-c3nn(C(C)C)c4ncnc(N)c34)[nH]c2c1 [Compound 8] | > 500 | > 500 |  |  |
| CC(C)n1nc(-c2cc3c(Cl)cccc3[nH]2)c2c(N)ncnc21 [Compound 9] | 25 to 50 | > 500 |  |  |
| COc1cccc2cc(-c3nn(C(C)C)c4ncnc(N)c34)[nH]c12 [Compound 10] | 10 to 25 |  |  |  |
| CNc1noc2cc(-c3nn(C(C)C)c4ncnc(N)c34)ccc12 [Compound 13] |  |  |  | IC50 ([1]; Table 1, read-out: mTOR IC50): < 10000 nM; IC50 ([2]; Table 1): < 10000 nM; IC50 ([3]; Table 1): < 1000 nM; IC50 ([4]; Table 1): < 1000 nM |
| COc1cc(Cl)c2[nH]c(-c3nn(C(C)C)c4ncnc(N)c34)cc2c1 [Compound 13] | > 500 | > 500 |  |  |
| CC(C)n1nc(-c2ccc3c(NC4CC4)noc3c2)c2c(N)ncnc21 [Compound 14] |  |  |  | IC50 ([1]; Table 1, read-out: mTOR IC50): < 10000 nM; IC50 ([2]; Table 1): < 10000 nM; IC50 ([4]; Table 1): < 10000 nM |
| COc1cc(F)c2[nH]c(-c3nn(C(C)C)c4ncnc(N)c34)cc2c1 [Compound 14] | > 500 | > 500 |  |  |
| CC(C)n1nc(-c2ccc3onc(NC4CC4)c3c2)c2c(N)ncnc21 [Compound 16] |  |  |  | IC50 ([1]; Table 1, read-out: mTOR IC50): > 10000 nM; IC50 ([2]; Table 1): > 10000 nM; IC50 ([4]; Table 1): > 10000 nM |
| CC(C)n1nc(-c2cc3cc(Cl)ccc3[nH]2)c2c(N)ncnc21 [Compound 17] | > 500 | > 500 |  |  |
| Nc1noc2ccc(-c3nn(CC(=O)N4CCOCC4)c4ncnc(N)c34)cc12 [Compound 17] |  |  |  | IC50 ([1]; Table 1, read-out: mTOR IC50): > 10000 nM; IC50 ([2]; Table 1): > 10000 nM; IC50 ([3]; Table 1): > 10000 nM; IC50 ([4]; Table 1): > 10000 nM |
| COc1ccc2[nH]c(-c3nn(C(C)C)c4ncnc(N)c34)cc2n1 [Compound 18] | > 500 |  |  |  |
| COC(=O)Nc1noc2ccc(-c3nn(C(C)C)c4ncnc(N)c34)cc12 [Compound 19] |  |  |  | IC50 ([1]; Table 1, read-out: mTOR IC50): < 10000 nM; IC50 ([2]; Table 1): > 10000 nM; IC50 ([5]; Table 1): > 10000 nM; IC50 ([4]; Table 1): > 10000 nM |
| COc1cnc2[nH]c(-c3nn(C(C)C)c4ncnc(N)c34)cc2c1 [Compound 19] | > 500 | > 500 |  |  |
| CC(C)n1nc(-c2cc3cnccc3[nH]2)c2c(N)ncnc21 [Compound 20] | > 500 | > 500 |  |  |
| COC(=O)Nc1noc2cc(-c3nn(C(C)C)c4ncnc(N)c34)ccc12 [Compound 20] |  |  |  | IC50 ([1]; Table 1, read-out: mTOR IC50): < 10000 nM; IC50 ([2]; Table 1): < 10000 nM; IC50 ([5]; Table 1): > 10000 nM; IC50 ([4]; Table 1): < 10000 nM |
| CC(C)n1nc(-c2cc3cc(C(N)=O)ccc3[nH]2)c2c(N)ncnc21 [Compound 23] | > 500 | > 500 |  |  |
| Nc1nc2cc(-c3nn(C4CC(O)C4)c4ncnc(N)c34)ccc2o1 (stereo not drawn) [Compound 26] |  |  |  | IC50 ([2]; Table 1): < 100 nM; IC50 ([3]; Table 1): < 100 nM |

| SMILES | IC50 ([1]; Table 2, read-out: mTORC IC50) [nM] | IC50 ([2]; Table 2) [nM] | IC50 ([3]; Table 2) [nM] | further results |
| --- | --- | --- | --- | --- |
| CCOC(=O)Cn1nc(-c2cc3cc(O)ccc3[nH]2)c2c(N)ncnc21 [Compound 28] | 100 to 500 | > 500 |  | IC50 ([5]; Table 2): > 500 nM; IC50 ([4]; Table 2): > 500 nM |
| COc1cc2cc(-c3nn(C(C)C)c4ncnc(N)c34)[nH]c2cc1Cl [Compound 29] | > 500 |  |  |  |
| CC(=O)N1CCC(n2nc(-c3cc4cc(O)ccc4[nH]3)c3c(N)ncnc32)CC1 [Compound 30] | 10 to 25 | > 500 |  | IC50 ([5]; Table 2): > 500 nM; IC50 ([4]; Table 2): > 500 nM |
| Nc1ncnc2c1c(-c1cc3cc(O)ccc3[nH]1)nn2C1CCN(C(=O)C2CC2)CC1 [Compound 31] | 10 to 25 | > 500 |  | IC50 ([5]; Table 2): > 500 nM; IC50 ([4]; Table 2): 100 to 500 nM |
| CC(C)n1nc(-c2cc3cc(O)c(Cl)cc3[nH]2)c2c(N)ncnc21 [Compound 32] | 100 to 500 | > 500 | > 500 | IC50 ([4]; Table 2): > 500 nM |
| Nc1ncnc2c1c(-c1cc3cc(O)ccc3[nH]1)nn2CCN1CCOCC1 [Compound 33] | 100 to 500 | > 500 | > 500 | IC50 ([4]; Table 2): > 500 nM |
| Nc1ncnc2c1c(-c1cc3cc(O)ccc3[nH]1)nn2CC(=O)N1CCOCC1 [Compound 34] | > 500 | > 500 | > 500 | IC50 ([4]; Table 2): > 500 nM |
| CNC(=O)Cn1nc(-c2cc3cc(O)ccc3[nH]2)c2c(N)ncnc21 [Compound 35] | > 500 | > 500 | > 500 | IC50 ([4]; Table 2): > 500 nM |
| CC(C)n1nc(-c2cc3c(O)cccc3[nH]2)c2c(N)ncnc21 [Compound 37] | > 500 | 100 to 500 | 100 to 500 | IC50 ([4]; Table 2): 100 to 500 nM |
| Nc1ncnc2c1c(-c1cc3cc(O)ccc3[nH]1)nn2Cc1cccnc1 [Compound 38] | 100 to 500 | > 500 | > 500 | IC50 ([4]; Table 2): > 500 nM |
| CC(C)n1nc(-c2cc3c(Cl)ccc(O)c3[nH]2)c2c(N)ncnc21 [Compound 39] | 5 to 10 | > 500 | > 500 | IC50 ([4]; Table 2): > 500 nM |
| COCCn1nc(-c2cc3cc(O)ccc3[nH]2)c2c(N)ncnc21 [Compound 40] | 50 to 100 | > 500 | > 500 | IC50 ([4]; Table 2): > 500 nM |
| Nc1ncnc2c1c(-c1cc3cc(O)ccc3[nH]1)nn2C1CCOCC1 [Compound 42] | < 5 | > 500 |  | IC50 ([5]; Table 2): > 500 nM; IC50 ([4]; Table 2): 50 to 100 nM |
| CNC(=O)CCn1nc(-c2cc3cc(O)ccc3[nH]2)c2c(N)ncnc21 [Compound 43] | > 500 | > 500 |  | IC50 ([5]; Table 2): > 500 nM; IC50 ([4]; Table 2): > 500 nM |
| Cc1nccn1CCn1nc(-c2cc3cc(O)ccc3[nH]2)c2c(N)ncnc21 [Compound 44] | 50 to 100 | > 500 |  | IC50 ([5]; Table 2): > 500 nM; IC50 ([4]; Table 2): > 500 nM |
| CC(C)n1nc(-c2cc3cc(O)ccc3[nH]2)c2c(N)nccc21 [Compound 45] | > 500 |  |  |  |
| Nc1ncnc2c1c(-c1cc3cc(O)ccc3[nH]1)nn2C1CC(=O)C1 [Compound 53] | 50 to 100 | > 500 | > 500 | IC50 ([5]; Table 2): > 500 nM |
| Nc1ncnc2c1c(-c1cc3cc(O)ccc3[nH]1)nn2C1CC(O)C1 (stereo not drawn) [Compound 54] | 10 to 25 | > 500 | > 500 | IC50 ([5]; Table 2): > 500 nM |
| CC(C)N1CCC(n2nc(-c3cc4cc(O)ccc4[nH]3)c3c(N)ncnc32)CC1 [Compound 55] | 100 to 500 | > 500 | > 500 | IC50 ([5]; Table 2): > 500 nM |
| CC(C)N1CCC(n2nc(-c3cc4cc(O)cc(Cl)c4[nH]3)c3c(N)ncnc32)CC1 [Compound 56] | > 500 | > 500 | > 500 | IC50 ([5]; Table 2): > 500 nM |
| Nc1ncnc2c1c(-c1cc3cc(O)ccc3[nH]1)nn2C1CCC(N2CCOCC2)CC1 (stereo not drawn) [Compound 57] | 10 to 25 | > 500 | > 500 | IC50 ([5]; Table 2): > 500 nM |
| CN1CCN(C2CCC(n3nc(-c4cc5cc(O)ccc5[nH]4)c4c(N)ncnc43)CC2)CC1 (stereo not drawn) [Compound 58] | > 500 | > 500 | > 500 | IC50 ([5]; Table 2): > 500 nM |
| COc1ccc2cc(-c3nn(C4CCOCC4)c4ncnc(N)c34)[nH]c2c1 [Compound 59] | > 500 | > 500 | > 500 | IC50 ([5]; Table 2): > 500 nM |
| Nc1ncnc2c1c(-c1cc3ccc(O)cc3[nH]1)nn2C1CCOCC1 [Compound 60] | 50 to 100 | > 500 | 50 to 100 | IC50 ([5]; Table 2): > 500 nM |
